Measured values: US20180040391A1, “GAS-INSULATED MEDIUM-OR HIGH-VOLTAGE ELECTRICAL APPARATUS INCLUDING HEPTAFLUOROISOBUTYRONITRILE AND TETRAFLUOROMETHANE” (General Electric Technology GmbH, priority 2015, published 2018)
Where two headings read alike, the source gives them in different places.

Experiments:
[1] = fluids of WO 2012/080246; cited from earlier work
[2] = saturated vapor pressure of i-C3F7CN and corresponding pressure raised to 20° C.; format: physicochemical
Experimental: However, since equipment is usually filled with gas at ambient temperature, the pressure to which reference is made in order to fill the equipment with heptafluoroisobutyronitrile is the pressure PTfill that corresponds, at the filling temperature, e.g. 20° C., to the PVS presented by said compound at the lowest utilization temperature Tmin of said equipment. This correspondence is given, for each compound, by the formula: […]
with Tmin expressed in kelvins.
By way of example, the Table II below gives the saturated vapor pressures, referenced PVSi-C3F7CN and expressed in hectopascals, presented by heptafluoroisobutyronitrile at temperatures of 0° C., −5° C., −10° C., −15° C., −20° C., −25° C., −30° C., −35° C., and −40° C., as well as the pressures, referenced P and expressed in hectopascals, which correspond to those saturated vapor pressures raised to 20° C.

[3] = boiling point (ASTM D1120-94); format: physicochemical; conditions: at 1013 hPa
Experimental: (i) a boiling point of −4.7° C. at 1013 hectopascals (hPa) (boiling point measured in accordance with ASTM D1120-94 “Standard Test Method of Boiling Point of Engine Coolants”);
(i′) a boiling point of −127.8° C. at 1013 hPa (boiling point measured in accordance with ASTM D1120-94);

Compound	boiling point [1]	PVSi-C3F7CN saturated vapor pressure ([2]; 0° C.)	Pi-C3F7CN pressure corresponding to the saturated vapor pressure raised to 20° C. ([2]; PVS at 0° C. raised to 20° C.)	Pi-C3F7CN pressure corresponding to the saturated vapor pressure raised to 20° C. ([2]; PVS at −5° C. raised to 20° C.)	Pi-C3F7CN pressure corresponding to the saturated vapor pressure raised to 20° C. ([2]; PVS at −10° C. raised to 20° C.)	Pi-C3F7CN pressure corresponding to the saturated vapor pressure raised to 20° C. ([2]; PVS at −15° C. raised to 20° C.)	Pi-C3F7CN pressure corresponding to the saturated vapor pressure raised to 20° C. ([2]; PVS at −20° C. raised to 20° C.)	Pi-C3F7CN pressure corresponding to the saturated vapor pressure raised to 20° C. ([2]; PVS at −25° C. raised to 20° C.)	Pi-C3F7CN pressure corresponding to the saturated vapor pressure raised to 20° C. ([2]; PVS at −30° C. raised to 20° C.)	Pi-C3F7CN pressure corresponding to the saturated vapor pressure raised to 20° C. ([2]; PVS at −35° C. raised to 20° C.)	Pi-C3F7CN pressure corresponding to the saturated vapor pressure raised to 20° C. ([2]; PVS at −40° C. raised to 20° C.)	PVSi-C3F7CN saturated vapor pressure ([2]; −5° C.)	PVSi-C3F7CN saturated vapor pressure ([2]; −10° C.)	PVSi-C3F7CN saturated vapor pressure ([2]; −15° C.)	PVSi-C3F7CN saturated vapor pressure ([2]; −20° C.)	PVSi-C3F7CN saturated vapor pressure ([2]; −25° C.)	PVSi-C3F7CN saturated vapor pressure ([2]; −30° C.)	PVSi-C3F7CN saturated vapor pressure ([2]; −35° C.)	PVSi-C3F7CN saturated vapor pressure ([2]; −40° C.)	boiling point [3]
O=C(C(F)(F)C(F)(F)F)C(F)(C(F)(F)F)C(F)(F)F [fluoroketone C6]	49 °C	–	–	–	–	–	–	–	–	–	–	–	–	–	–	–	–	–	–	–
N#CC(F)(C(F)(F)F)C(F)(F)F [i-C3F7CN, 2,3,3,3-tetrafluoro-2-trifluoromethyl propanenitrile]	–	1177 hPa	1264 hPa	1058 hPa	877 hPa	720 hPa	583 hPa	466 hPa	368 hPa	286 hPa	218 hPa	968 hPa	788 hPa	634 hPa	504 hPa	395 hPa	305 hPa	232 hPa	173 hPa	−4.7 °C
O=C(C(F)(F)F)C(F)(C(F)(F)F)C(F)(F)F [fluoroketone C5]	23 °C	–	–	–	–	–	–	–	–	–	–	–	–	–	–	–	–	–	–	–
